Laboratory results published in patent publication US7309713B2, “Use of the non-opiate analgesic drug flupirtine for the treatment of overactive bladder and associated diseases including urge incontinence, urinary flow problems as a result of prostate hyperplasia and irritable bowel syndrome” (priority 2005, dated 2007).
Where “and” joins values, the source holds several entries; their conditions need not be identical. Identical values can stand only once. Entries after “also recorded” stand apart in the source; their conditions may differ. Counter-ions that a name gives are not always drawn.

Assays:
[1] = test system: volume-induced rhythmic urinary bladder contractions; assay: volume-induced rhythmic urinary bladder contractions in urethane anaesthetised rats (rat model of overactive bladder); assay type: in vivo, Sprague Dawley rat; settings: for presence/absence of bladder contractions (block grade), individual animal: 55 min period, Table 3; for decrease in frequency, individual animal / duration of block, individual animal / increase in frequency, individual animal / number of episodes of block per animal: individual animals; for mean pressure peaks of the amplitude diminished/reduced by: reduction
Text: In the search for new drugs compounds are of interest which affect the central nervous system circuits involved in micturation as well as the peripheral nerves resulting in a decrease in the frequency of the voiding reflex without any effect on bladder contractility. […] The method utilises spontaneous, volume-induced contractions of the urinary bladder in anaesthetised rats and was developed and first described by Dray (J. Pharmacol. Meth. 13:157-165, 1985) to assess the central activity of substances with opioid properties on bladder function. As this model clearly mimics the interplay between smooth muscle function and neuronal control thereof, this model can be also used to predict drug effects in a different disease, i.e. irritable bowl syndrome (IBS).
Aim of the study: To characterise the effects of the analgesic flupirtine maleate on the bladder function we used the model volume-induced contractions of urinary bladder in urethane anaesthetised rats. […] The compounds at the dose range 0.1-10 mg/kg were intraduodenally administered to anaesthetised rats. The intraduodenal route was chosen to mimic the oral route and to avoid the use of solvents necessary for intravenous administration.
• Species: Sprague Dawley rat • Sex: Female • Body weight: 200-270 g • Breeder: Charles River, Sulzfeld • Food/Tap water: pellets, ssniff M/R15, ad libitum, Spezialdiäten GmbH, Soest/Wesffalen, FRG • Conditions in animal housing: Rats were kept conventionally in groups of 6 in macrolon cages No. 4. • Room temperature: 20-24° C. • Relative humidity: 40-70%, deviations from the maximum range caused during cleaning procedure are possible • Light/Dark rhythm: 12/12 h light/dark cycle, light on at 6:00 a.m.
The food was withdrawn 16 hours before intraduodenal drug administration. Tap water was available ad libitum.
Flupirtine maleate or oxybutynin hydrochloride were suspended in hydroxyethylcellulose (0.5%) in demineralised water. The substances were ground in a mortar with pistil. The suspensions were placed on a magnetic stirrer before and during dosing procedures. The substances were freshly prepared in the morning and applied intraduodenally in a volume of 0.4 ml/100 g body weight. Control rats received hydroxyethylcellulose (0.5%) i.d.
The filling material, consisting of small globules, was ground in a mortar with pistil. Thereafter the grounded material was suspended in hydroxyethylcellulose (0.5%) in demineralised water. The suspensions were placed on a magnetic stirrer before and during dosing procedures for 10 minutes. The suspensions were freshly prepared in the morning and applied intraduodenally in a volume of 0.4 ml/100 g body weight to rats. Control rats received the same amount of hydroxyethylcellulose (0.5%) i.d.
The continuous registration lasted 1 hr. […] The frequency was evaluated for 10 min before (baseline) and within the observation period in intervals of 10 minutes starting 5, 20, 35 and 50 min after drug administration. For intraduodenal dosing, drugs were administered via a duodenal polyethylene tube to animals in aqueous suspension of 0.5% hydroxyethylcellulose.

[2] = test system: mean arterial blood pressure; assay: mean arterial blood pressure recorded in the urethane anaesthetised rats of the bladder model
Method: The body temperature was maintained at 37° C. by means of an heated small operating table and 2 red light heating lamps. The left carotid artery was prepared and a catheter for continuous blood pressure measurement was inserted and connected to a Statham pressure transducer (Model P23 Db) and connected with a computer-controlled physiological recorder (PMS PR 800, Mumed Systems Ltd London, GB).
For intraduodenal drug administration a polyethylene catheter was inserted into the upper part of the duodenum, about 5 cm downwards from the pylorus and fixed with a purse-string suture. Bilateral ureters were ligated proximally to the bladder to prevent the bladder filling with urine. Urine of the kidneys was drained onto cotton swabs within the abdomen. The urinary bladder was catheterised via the urethra by use of PE 50 polyethylene tubing filled with physiological saline and secured in place by a ligature at the lower part of the urethra. Using a “T”-connector, the bladder catheter was connected to a Statham pressure transducer (Model P23 Db) connected with the physiological recorder (PMS PR 800) to measure intravesicular pressure and to a Infusion pump (TSE, FRG). Continuous recordings of intravesicular pressure and arterial blood pressure were captured onto a 4 channel Linearcorder WR3310 (Western Graphtec, Inc., USA). The experiment was started infusing (0.05 ml/min) the bladder with warmed saline (37-38° C.) to evoke rhythmic bladder contractions by means an infusion pump up to a maximal volume of 1.0 ml. The infusion is stopped after reaching the final volume or with the start of rhythmic bladder contractions.

[3] = 0.1 mg/kg i.d. single dose, group mean
[4] = 1.0 mg/kg i.d. single dose, group mean
[5] = 10 mg/kg i.d. single dose, group mean

For `CCN(CC)CC#CCOC(=O)C(O)(c1ccccc1)C1CCCCC1` (stereo not drawn) [oxybutynin hydrochloride, (α-Phenylcyclohexaneglycolicacid 4-[diethylamino]-2-butynyl ester hydrochloride], the “block X/n (animals with blockade of bladder contraction)” value (“block X/n” for short) ([1]; 0.1 mg/kg i.d. single dose) was 3/3, the “block, blockade duration (group, min-max)” value (“block, blockade duration” below) ([1]; 0.1 mg/kg i.d. single dose) was 4 to 6 min and the “amplitude Post (30-60 min), mean” value [1, 3] was 32.0-32.0 mm Hg. The “amplitude, change in percent from base value (Δ %)” value [1, 3] was −13%, the “frequency Post (20-60 min), mean” value [1, 3] was 6.3-7.3 n/10 min and the “frequency, change in percent from base value (Δ %)” value [1, 3] was −12%. The “presence/absence of bladder contractions (block grade), individual animal” value (from here on “presence/absence of bladder contractions”) ([1]; 0.1 mg/kg i.d.) was “(+) (+ or (+) = contractions abolished during 5-10 min time period)”, the “decrease in frequency, individual animal” value ([1]; 0.1 mg/kg i.d., hydrochloride) was “decrease in frequency by 25%,; also recorded: frequency by 50%” and the “duration of block, individual animal” value ([1]; 0.1 mg/kg i.d., hydrochloride) was ≤ 6 min and 5 min and max. 4 min, initial increase,. For the same compound, the “increase in frequency, individual animal” value ([1]; 0.1 mg/kg i.d., hydrochloride) was “frequency by 17%; also recorded: by 9% during 5-15th min”, the “number of episodes of block per animal” value ([1]; 0.1 mg/kg i.d., hydrochloride) was 4 (2×) and 1 and the “number of episodes of block per animal” value ([1]; 0.1 mg/kg i.d., listed as Oxybutynin hydrochloride, hydrochloride) was 1-4. For the same compound, the “mean pressure peaks of the amplitude diminished/reduced by” value ([1]; 0.1 mg/kg i.d.) was 13%, the “block X/n” value ([1]; 1.0 mg/kg i.d. single dose) was 3/3 and the “amplitude, change in percent from base value (Δ %)” value [1, 4] was −20%. For the same compound, the “frequency, change in percent from base value (Δ %)” value [1, 4] was −68%, the “amplitude Post (30-60 min), mean” value ([1]; 1.0 mg/kg i.d. single dose, group mean, hydrochloride) was 3/3 bl and the “presence/absence of bladder contractions” value ([1]; 1.0 mg/kg i.d., hydrochloride) was “+++ from 3 to 11th and 30 to (+++ = contractions abolished during 30-60 min time period); also recorded: ++ (++ = contractions abolished during 10-30 min time period)”. For the same compound, the “mean voiding frequency decreased by” value ([1]; 1 mg/kg i.d., decrease) was 68%, the “decrease in frequency, individual animal” value ([1]; 1.0 mg/kg i.d., hydrochloride) was “contractions by 100%; also recorded: frequency by 62%; also recorded: by 80%” and the “duration of block, individual animal” value ([1]; 1.0 mg/kg i.d., hydrochloride) was 9 min and 30 min and 7 to 16 min and 4 to 11 min. For the same compound, the “number of episodes of block per animal” value ([1]; 1.0 mg/kg i.d., hydrochloride) was 3-6 and 3 and 5, the “mean pressure peaks of the amplitude diminished/reduced by” value ([1]; 1 mg/kg i.d.) was 20% and the “block X/n” value ([1]; 10 mg/kg i.d. single dose) was 3/3. For the same compound, the “amplitude, change in percent from base value (Δ %)” value [1, 5] was −38%, the “frequency, change in percent from base value (Δ %)” value [1, 5] was “+22%” and the “block, blockade duration” value ([1]; 10 mg/kg i.d. single dose, hydrochloride) was 5 to 30 min. For the same compound, the “block, blockade duration” value ([1]; 10 mg/kg i.d. single dose, listed as Oxybutynin hydrochloride, hydrochloride) was 4 to 30 min, the “presence/absence of bladder contractions” value ([1]; 10 mg/kg i.d., hydrochloride) was “+ (+ or (+) = contractions abolished during 5-10 min time period); also recorded: ++ (++ = contractions abolished during 10-30 min time period)” and the “mean frequency averaged over all animals increased by” value ([1]; 10 mg/kg i.d., increase) was 22%. For the same compound, the “duration of block, individual animal” value ([1]; 10 mg/kg i.d., hydrochloride) was 4 min (2×) and 30 min, the “increase in frequency, individual animal” value ([1]; 10 mg/kg i.d., hydrochloride) was “increase in frequency by 14%; also recorded: in frequency by 28%; also recorded: increase in frequency by 22%” and the “number of episodes of block per animal” value ([1]; 10 mg/kg i.d., hydrochloride) was 2 and 1 (2×). The “mean pressure peaks of the amplitude diminished/reduced by” value ([1]; 10 mg/kg i.d.) was 38%, the “reduction in the amplitude, of the basal value” ([1]; dose range 0.1-10 mg/kg i.d., generally) was “no more than 60%” and the “mean BP, change in percent from base value (Δ %)” value [2, 3] was −5%. For the same compound, the “mean BP Post (30-60 min), mean” value [2, 4] was 80.0-85.0 mm Hg, the “mean BP, change in percent from base value (Δ %)” value [2, 4] was −15% and the “mean BP, change in percent from base value (Δ %)” value [2, 5] was −24%. For the same compound, the “mean arterial blood pressure decreased by” value ([2]; 10 mg/kg i.d., decrease) was 24%.
